Experimental data as given in US20250352577A1, “TUMOR NEOANTIGENIC PEPTIDES AND USES THEREOF” (MNEMO THERAPEUTICS, priority 2021, published 2025).
“Also recorded” adds a separate entry of the source.

T1: TE-exon fusion (JET / chimeric) transcript-derived peptide, LUAD (peptide 17) peptide on HLA-A*02:01 (human)
T1 peptide: LLDRFGYHV

T2: TE-exon fusion (JET / chimeric) transcript-derived peptide, LUAD (peptide 53) peptide on HLA-A*02:01 (human)
T2 peptide: MLVTWELAL

B1: TCR number 1 (Table 4bis) (TCR)
alpha TRAV41*01 TRAJ34*01 CDR3: CAVLLDNTDKLIF
beta TRBV6-5*01 TRBJ-2*01 CDR3: CASSRLQGALELFF
B2: TCR number 4 (Table 4bis) (TCR)
alpha TRAV35*01 TRAJ54*01 CDR3: CAGQLAGAQKLVF
beta TRBV13*01 TRBJ2-5*01 CDR3: CASSPSRDGQETQYF

How the values were obtained:
[1] = tested on: CD8+ T cells from HLA-A2+ healthy donors; assay: Priming of naive CTLs (immunogenicity assay) with two-colour tetramer staining; assay type: cell-based, human; details: for specific CD8+ T cell expansion (immunogenicity): total of 6 healthy donors, FIG. 11A; for percentage of tetramer positive cells among total CD8+ T cells compared to control: one donor, control co-culture without peptides
Procedure: Priming of naïve CTLs. […] CD14+, CD4+ and CD8+ cells were purified by positive selection using magnetic beads (Miltenyi Biotec). While CD4+ and CD8+ T cells were cryopreserved until the experiment day, CD14+ fraction was cultured in the presence of IL-4 (50 ng/mL) and GM-CSF (10 ng/mL) at 10^6 cells/mL during 5 days to obtain moDCs. After this period of time, the moDCs were maturated with LPS and incubated with synthetic ER-derived peptides at a final concentration of 1 μg/mL for 2 hours.
Tetramer Staining. Cells were resuspended in PBS, stained with Live/Dead Aqua-405 nm (ThermoFisher) during 20 minutes at 4° C. and washed once. After that, cells were resuspended in PBS-1% BSA containing the mix of SA-coupled tetramers and incubated in the dark at room temperature during 20 minutes. Without further washing, surface antibodies were added in PBS-1% BSA and cells were incubated 20 minutes in the dark at 4° C. […] Finally, cells were washed twice and resuspended in FACS buffer for flow cytometry analysis.
Priming assays were thus performed to test the ability of identified peptides to expand specific cytotoxic T cells. […] After loading the moDCs with a mix of synthetic peptides, autologous co-culture was performed with CD4+ and CD8+ T cells. Finally, the expansion of specific CD8+ T cells was analysed by flow cytometry using two-colours tetramer staining. As a control of specific expansion, the co-culture was performed in the absence of peptides.
The same experiment was performed in order to evaluate the response in additional 5 donors. […] As a positive of expansions, mutated Melan-A peptide ([…]) were used.

[2] = tested on: CD8+ T cells of LUAD patients; assay: Tetramer staining of CD8+ T cells from LUAD patient samples and TILs; assay type: cell-based, human; details: TILs expanded with peptide mix + IL-2 or IL-2 only
Procedure: Tetramer Staining. Cells were resuspended in PBS, stained with Live/Dead Aqua-405 nm (ThermoFisher) during 20 minutes at 4° C. and washed once. After that, cells were resuspended in PBS-1% BSA containing the mix of SA-coupled tetramers and incubated in the dark at room temperature during 20 minutes. Without further washing, surface antibodies were added in PBS-1% BSA and cells were incubated 20 minutes in the dark at 4° C. Surface antibodies were a combination of anti-CD3-BV650+ anti-CD8-PECy7 in combination with anti-CCR7-AF700+ anti-CD45RA-BUV395 when required. Finally, cells were washed twice and resuspended in FACS buffer for flow cytometry analysis.
Tissues and Blood samples. […]
Tumor infiltrating lymphocytes (TILs) cultures. […] Cells were feed/split as necessary during 15-20 days and cryopreserve or analyzed for tetramer staining.
In a first set of experiments tumor infiltrating lymphocytes (TILs) expanded with a mix of TE-derived peptides and Il-2, or only with Il-2, were analyzed by tetramer staining. […]
In a second cohort of 5 primary, untreated, LUAD tumor, juxta-tumor, tumor-draining lymph node and blood samples from LUAD cancer HLA-A2+ patients were analyzed. […]

[3] = target: T1, TE-exon fusion (JET / chimeric) …; assay: multimer staining
[4] = target: T2, TE-exon fusion (JET / chimeric) …; assay: multimer staining

Row | Molecule | specific CD8+ T cell expansion (immunogenicity) [1] | other results
1 | MLVTWELAL | specific CD8+ T expansions | –
2 | RLADHLSFC | specific CD8+ T expansions; also recorded: immunogenic | percentage of tetramer positive cells among total CD8+ T cells compared to control [1]: increase in at least one magnitude order
3 | YLWTTFFPL | specific CD8+ T expansions | percentage of tetramer positive cells among total CD8+ T cells compared to control [1]: increase in at least one magnitude order
4 | YLPYFLKSL | specific CD8+ T expansions | –
5 | GLPSHVELA | specific CD8+ T expansions; also recorded: immunogenic | tetramer positive CD8+ T cells in TILs of LUAD patients [2]: TILs recognizing
6 | AILPKANTV | specific CD8+ T expansions | percentage of tetramer positive cells among total CD8+ T cells compared to control [1]: increase in at least one magnitude order
7 | ILSGYGPCV | specific CD8+ T expansions | –
8 | YLQGLPLPL | specific CD8+ T expansions | –
9 | SLMQSGSPV | specific CD8+ T expansions | –
10 | FLIVAEILI | – | percentage of tetramer positive cells among total CD8+ T cells compared to control [1]: increase in at least one magnitude order
11 | MLMKTVWQA | specific CD8+ T expansions | –
12 | AMDGKELSL | specific CD8+ T expansions | –
13 | RLLHLESFL | specific CD8+ T expansions | percentage of tetramer positive cells among total CD8+ T cells compared to control [1]: increase in at least one magnitude order
14 | VLLTNTIWL | specific CD8+ T expansions | –
15 | RQAPGFHHA | specific CD8+ T expansions | –
16 | LLDRFGYHV | specific CD8+ T expansions | –
17 | LLGETKVYV | specific CD8+ T expansions | percentage of tetramer positive cells among total CD8+ T cells compared to control [1]: increase in at least one magnitude order
18 | FLGTRVTRV | specific CD8+ T expansions | –
19 | LLHLESFLV | specific CD8+ T expansions | –
20 | ILTASITSI | specific CD8+ T expansions | –
21 | VLMWTMAHL | specific CD8+ T expansions | –
22 | LLTSWHLYL | specific CD8+ T expansions | –
23 | ILHSLVTGV | specific CD8+ T expansions | –
24 | GLLNISHTA | specific CD8+ T expansions | –
25 | B1 | – | binding result [3]: recognises
26 | B2 | – | binding result [4]: recognises
